# Measurements as given in ChEMBL document CHEMBL3507680, “University of Dundee, Gates Library screen for HepG2 cell viability”.
# Test: Human HepG2 cell viability assay in 384 well format
# Type: toxicity, cell-based
# Design: dose 125 nL, time 70.5 hour; concentration not given beside the values
# Conditions: HepG2 cells, read-out: Inhibition
row,Compound,cytotoxicity at 70.5 h
1,CN(C)C(=O)CN1CCCC(Cc2ccc(N3CCCC3)nn2)C1 (configuration not stated),-9.12%
2,c1ccc(Cn2cc3c(n2)C(CNCC2CCOCC2)OCC3)nc1 (configuration not stated),-1.54%
3,COCc1nc(NCC2CCS(=O)(=O)C2)c2cnn(C)c2n1 (configuration not stated),-7.96%
4,CCCS(=O)(=O)N1CC(=O)N(CCCc2ccccc2)CC(O)C1 (configuration not stated),10.8%
5,COc1ccc(NC(=O)Cc2c(C)nn(C)c2C)cc1F,7.37%
6,CN(Cc1cccc(F)c1)C1CCN(CCc2ccccn2)CC1,15.1%
7,CNC(=O)C1(c2cnccn2)CCCN1C(=O)Cc1ccsc1 (configuration not stated),-6.75%
8,O=S(=O)(c1ccc(Cl)cc1)N1C[C@@H]2CCN[C@@H]2C1,-6.26%
9,Cc1nn(C)c(C)c1-c1cnc(C2CCCN(C)C2)cn1 (configuration not stated),-7.8%
10,O=C1NCCN1C1CCCN(Cc2coc(-c3ccc(F)cc3)n2)C1 (configuration not stated),31%
11,CC(C)Cc1cc(C(=O)NCc2nnc[nH]2)[nH]n1,-13.4%
12,O=S(=O)(Cc1ccccc1Cl)N1CCC2(CC1)OCCS2,-5.23%
13,Cc1cc(C)n(C2CN(CCC(=O)NCCc3ccccc3)C2)n1,-1.03%
14,CC(C)(C)n1ncc2c(=O)[nH]c(N3CCN(CC(F)F)CC3)nc21,-4.17%
15,NC(=O)NC(=O)CCN1CCCN(c2nccs2)CC1,0.668%
16,COCC(NC(=O)NCc1cccc(C#N)c1)c1ccco1 (configuration not stated),-2.38%
17,CC(C)c1nc(CN2CCCN(Cc3nccn3C)CC2)no1,18.1%
18,CC(C)C1CN(C(=O)c2ccc(N3CCCC3)nc2)CCS1 (configuration not stated),-8.6%
19,CN(CCc1cccs1)CCc1nccs1,0.685%
20,O=C(Cn1nc(N2CCOCC2)ccc1=O)Nc1nccs1,15%
21,Cc1nccn1C1CCCN(C(=O)c2sccc2-n2cnnn2)C1 (configuration not stated),-8.22%

row,Compound,cytotoxicity at 70.5 h
1,Cc1ncc2c(n1)CN(Cc1nc(-c3ccsc3)no1)CC2,-21.5%
2,c1cnn(C2CN(c3nc(-c4ccncc4)nc4c3CCC4)C2)c1,-1.27%
3,Cc1ccnc(C(NC(=O)c2ncoc2C)C2CC2)n1 (configuration not stated),16.5%
4,CCc1nc2n(n1)CCCC2Nc1nc(C(C)C)ns1 (configuration not stated),-9.57%
5,Cc1nccc(CNC(=O)NC(c2ncc(C)s2)C2CC2)n1 (configuration not stated),17.4%
6,CN1CCc2nc(C3CCCN(S(=O)(=O)N4CCCC4)C3)ncc2C1 (configuration not stated),0.156%
7,O=C(c1ccc(Cl)cc1)N1CCC2(CC1)C(=O)Nc1ccccc12,14.3%
8,COCC1CN(C(=O)Cc2ccc(F)cc2)Cc2ccnn2C1 (configuration not stated),-5.52%
9,Cn1cc(N2CCC3(CCN(C(=O)[C@H]4CCCO4)C3)C2=O)cn1 (some centres not stated),-7.22%
10,Cc1cc(C(=O)NCCc2cn3nc(C)sc3n2)c(C)o1,-5.61%
11,Cc1nc(C)c(Cn2ccnc2-c2cc(CN(C)C)cs2)s1,2.87%
12,Cc1cc(C)nc(NC(C)Cc2cnccn2)n1 (configuration not stated),-14%
13,Cc1cnn(-c2cccc(N3CCN(c4cc(C)nc(C)n4)CC3)n2)c1,15.5%
14,CCN(C(=O)c1nc2c(s1)CCCN2c1ccc(C)nn1)C(C)C,-3.47%
15,COCCCNS(=O)(=O)c1cc(Br)sc1C,-6.02%
16,CC1(C)CN(C(=O)c2cnc(CN3CCCC3)s2)CC[C@]1(C)O,-0.621%
17,Cc1ccccc1C(C#N)NC(=O)c1cccc2c1OCCO2 (configuration not stated),11%
18,CS(=O)(=O)CCC(=O)N1C[C@@H]2CC[C@H](C1)N(Cc1ccccn1)C2=O,14.6%
19,O=C(O)COc1ccc(Cl)cc1CN1CCC2(CCNCC2)CC1,-11.2%
20,Cc1ccc(CC(=O)N2Cc3nccn3CC(Cn3cccn3)C2)cc1 (configuration not stated),-0.504%
21,CCC(C(=O)N1CCS(=O)(=O)CC1)n1cccn1 (configuration not stated),-4.81%

row,Compound,cytotoxicity at 70.5 h
1,Cc1cc(CN2CCN(C(=O)C(C(C)C)n3cncn3)CC2)no1 (configuration not stated),-8.12%
2,CN1CCN(C(=O)[C@@H]2CC[C@@H]3[C@@H](CCN3c3ncccn3)O2)CC1,-7.39%
3,CCc1noc(CC)c1CNC(=O)Nc1ccc2[nH]nnc2c1,-4.16%
4,Cc1ccc(C(=O)N2CCC(c3n[nH]c(C4CC4)n3)CC2)cc1F,-7.97%
5,Cc1csc(CNc2cnn(C(C)C)c2)n1,3.67%
6,Cc1cc(C)c(CNC(=O)NCC(O)c2ccccc2F)c(=O)[nH]1 (configuration not stated),-2.12%
7,CC(C)(C)c1ccc(S(=O)(=O)CCN2CCNC(=O)CC2)cc1,-10.4%
8,CCc1nc(C)c([C@H]2CN(C)C[C@@H]2C(=O)Nc2cccc3cn[nH]c23)[nH]1,-5.72%
9,COc1ccnc(CN2CCCC(CCc3ccc(F)cc3)C2)c1OC (configuration not stated),2.04%
10,O=C(NCC(O)c1ccc(Cl)c(F)c1)NC1CC=CC1 (configuration not stated),-3.83%
11,O=C(c1cscn1)N1CCc2[nH]nc(Nc3ccccc3)c2C1,-6.3%
12,Cc1ccc(C(=O)N2CCN(Cc3nc(C(C)C)no3)CC2)c(=O)[nH]1,1.28%
13,COc1ncccc1CNCc1c(C(C)C)nn(C)c1Cl,-5.22%
14,CSCC(C)N(C)C(=O)CN1CCN(c2ccccn2)CC1 (configuration not stated),17.8%
15,Cc1cnn(CCNC(C)C(=O)Nc2ccc(Cl)cn2)c1 (configuration not stated),-9.14%
16,O=C(NCCc1ccc(Cl)cc1)c1coc(CN2CCOCC2)c1,-5.77%
17,Cc1noc(C(C)N2CCN(Cc3noc(C4CC4)n3)CC2)n1 (configuration not stated),-8.62%
18,Cc1nc(CN2CCN(S(=O)(=O)N3CCOCC3)CC2)oc1C,-3.19%
19,COc1ccc2c(c1)CCCN(CC(=O)NCC1CCCO1)C2 (configuration not stated),-5.84%
20,COc1ccc(S(=O)(=O)N2CCCC3(CCCN3S(C)(=O)=O)C2)cc1 (configuration not stated),8.26%
21,CCc1ccc(C2CCCN2C(=O)Cc2ccc(NC(C)=O)cc2)o1 (configuration not stated),10.6%

row,Compound,cytotoxicity at 70.5 h
1,COCCN1CCCC(C)(c2cc(O)[nH]n2)C1 (configuration not stated),1.15%
2,CC(NC(=O)NCCCc1n[nH]c(N)c1C#N)c1ccc(F)cc1 (configuration not stated),-6.13%
3,CCC(C)NC(=O)CCNC(=O)c1c[nH]cc1-c1cccc(OC)c1 (configuration not stated),2.46%
4,CCc1nc(CN(C)C2CCN(CCc3ccccn3)C2)no1 (configuration not stated),3.72%
5,O=c1ccc2c(n1Cc1cccnc1)CCC(NCc1cccnc1)C2 (configuration not stated),-0.912%
6,O=C(NC[C@H]1Cn2c(-c3ccccc3)cnc2CO1)C1CCOCC1,-9.93%
7,Cn1ccnc1-c1noc(NCc2ccc(Br)cc2)n1,-7.73%
8,CCc1cc(NC2CCS(=O)(=O)CC2)nc(N2CCCCC2)n1,22.5%
9,Cc1nnc(N2CCc3cnc(C(C)C)nc3C2)c(C#N)c1C,1.1%
10,O[C@@H]1CN(c2cnc3ccccc3n2)CC[C@H]1c1ccc2c(c1)OCO2,21%
11,O=S(=O)(c1c(F)cccc1F)N1CCCC1c1nnc2n1CCCCC2 (configuration not stated),-12.1%
12,CCC(NC(=O)NCc1cccc(N(C)C)n1)c1cccs1 (configuration not stated),-11.8%
13,CCc1nnc(CN(CC)C(=O)C2CC(=O)N(C(C)(C)C)C2)o1 (configuration not stated),-4.84%
14,O=C(NCC1CCCO1)c1nc2c(s1)CCCN2c1ncccn1 (configuration not stated),24.3%
15,CC(C)NC(=O)N1CCc2ncnc(-c3ccncc3)c2CC1,-3.38%
16,Cc1nc(C2CCNC2)nc2c1CCC(=O)N2CC(C)C (configuration not stated),-3.62%
17,Cc1n[nH]c(NC(=O)c2ccc(COCC(F)(F)F)cc2)c1C,-10.3%
18,O=C(c1cccs1)N1CCC2(CC1)CN(c1cncnc1)C(=O)CO2,-12.3%
19,CC(C)n1ccc(-c2cc(C(=O)NC3CC3)c3ccccn23)n1,21.3%
